Measurements from patent US7166688B1, “Chelation compositions” (LidoChem, Inc., priority 2000, dated 2007).

Experiments:
[1] = Copper chelation, clear solution / precipitate test; type: physicochemical
Description: A five percent chelated copper solution was prepared by blending 19 grams of basic copper sulfate in 100 ml of water. Concentrated HCl was added to solubilize the copper. Once in solution, 71 grams of the compound produced in Example 10 was added. […] This chelated copper solution is suitable for blending with phosphorus fertilizers.
In 250 ml of water 1 gram of copper sulfate was added and mechanically stirred. To this solution, 10 ml of the diethanolsuccinamide-amino ethanol solution produced in Example 17 was added. The pH of the blend was adjusted to 8.4 and 1 gram of potassium phosphate was added the mixture.
In another flask, 1 gram of copper sulfate was added to 250 ml of water and mechanically blended. Then, 1 gram of potassium phosphate was added to the blend. The pH of the solution was adjusted with potassium hydroxide. Immediately a powder solid was formed and precipitated. The hydroxide and phosphate salts of copper were formed.
(§1) In 400 ml of water, 1 gram of copper sulfate was added and 10 ml of the product from example 28 were added. With mechanical stirring, 20 grams of monopotassium phosphate were added to the mix. The pH of the solution was then adjusted to 2 with HCl. The pH of the solution was then gradually raised with the addition of Monoethanolamine to a pH of 9.
Two grams of basic copper sulfate were added to 200 ml of water. […]

[2] = Iron chelation, clear solution / precipitate test; type: physicochemical
Description: A five percent chelated iron solution was prepared by blending 18 ml of water with 100 grams of a (10% Fe) ferric nitrate solution. Once in solution, 82 grams of the compound produced in Example 10 was added.
In 25 ml of water, 20 ml of a 1.8M ferric nitrate was added. Once in solution, 30 ml of the diethanolsuccinamide amino ethanol solution produced in Example 17 was added and the pH of the blend was adjusted to 9.2. Then 1 gram of potassium phosphate was added to the mixture.
Five drops of 1.8 M ferric nitrate were added to one liter of water and mechanically blended. Then 10 grams of potassium phosphate were added to the solution and allowed to form insoluble potassium salts.
In 400 ml of water, 20 ml of a 10% ferric nitrate solution were added, and 20 ml of the product from example 25 were added. With mechanical stirring, 40 grams of monopotassium phosphate was added the mix. The pH of the solution was then adjusted to 2 with HCl. The pH of the solution was then gradually raised with the addition of base to a pH of 10.
In 400 ml of water, 10 ml of 1.8 M ferric nitrate solution were added and 20 ml of the product from example 28 were added. With mechanical stirring, 20 grams of monopotassium phosphate was added to the mix. The pH of the solution was then adjusted to 2 with HCL. The pH of the solution was then gradually raised with the addition of Monoethanolamine to a pH of 10.
To a beaker containing one liter of water, 20 grams of potassium phosphate were added to form a clear solution.
Thirty grams of 1.8 M ferric nitrate were added to 100 ml of water. The pH of the solution was lowered to 4 with phosphorous acid, and then 5 grams of Potassium phosphate were then added to the blend. Later 30 ml of the solution produced in example 29 was added.
One hundred ml of the solution prepared in Example 41 was added to 500 ml of water and blended. 10 ml of 1.8-M ferric nitrate was then added to the mixture. […] The potassium salt of maleic acid was tested as a chelating agent.
In a separate flask 20 grams of maleic anhydride were blended in 500 ml of water. Potassium hydroxide was then added to the blend to raise the pH to 10. Later ten ml of 1.8M ferric nitrate was added to the mix and 10 grams of potassium phosphate was also blended in. […] The contents of the flask were then blended again while MEA was added to the mix.

[3] = Zinc chelation, clear solution / precipitate test; type: physicochemical
Description: In 25 ml of water 1 gram of zinc sulfate was added. Once the zinc sulfate was in solution, 30 ml of the N,N-diethanolsuccinamide amino ethanol solution produced in Example 17 was added and the pH of the blend was adjusted to 9.5. Then 1 gram of potassium phosphate was added tho the mixture.
In a separate flask 25 ml of water, 1 gram of zinc sulfate and 1 gram of potassium phosphate were blended together. Immediately a white precipitate formed.
as §1, with “20 ml” for “1 gram”, “a 17% zinc nitrate solution were” for “copper sulfate was”, “60” for “10”, “40” for “20”
A nine percent chelated zinc solution was prepared by blending 50 ml of water with 22.4 grams zinc oxide. Concentrated HCl was added until the solution was clear. Once in solution, 125 grams of the compound produced in Example 10 was added. […] This chelated zinc solution is suitable for blending with phosphorus fertilizers 2-ethanolaminesuccinic-N-ethanolsuccinicamide (tri potassium salt) has the following formula: […]
Ten ml of 17% zinc solution were added to a liter of water. Later 20 grams of potassium phosphate were added and dissolved. Zinc phosphate formed a precipitate. Phosphorous acid was then added to lower the pH and clear the solution. Once clear 30 ml of the solution prepared in example 35 was added. This acidic solution, which was acidic, then remained undisturbed for a day, after which the pH was adjusted to 10 with the addition of MEA.

[4] = Manganese chelation, clear solution / precipitate test; type: physicochemical
Description: In 25 ml of water 10 ml of a manganese nitrate solution was added. Once the manganese nitrate was in solution, 30 ml of the N,N-diethanolsuccinamide amino ethanol solution produced in Example 17 was added to the mixture and the pH of the blend was adjusted to 6. Then 1 gram of potassium phosphate was added to the mixture.
A five percent chelated manganese solution was prepared by blending 18 ml of water with 58 grams of a (17% Mn) manganese nitrate solution. Once the manganese nitrate was in solution, 82 grams of the compound produced in Example 10 was added. […] This chelated manganese solution is suitable for blending with phosphorus fertilizers.

[5] = Calcium chelation, clear solution / precipitate test; type: physicochemical
Description: In a preliminary study, 2 grams of calcium chloride dihydrate were added to 200 ml of water and mechanically stirred. Then 20 ml of the diethanolsuccinamide amino ethanol solution produced in example 17 was added to the blend.
In another flask 2 grams of calcium chloride dihydrate were added to 200 ml of water and the pH was adjusted to 9. Almost immediately calcium hydroxide began to precipitate.

Corn [6] = experiment: Foliar applied IDS chelated minerals, tissue analysis, corn; type: in vivo
Description: (§2) An experimental trial was completed testing the efficacy of the Iminodisuccinates (IDS) of this invention on five different crops. Below is the protocol and tissue analysis for both soil and foliar applied iminodisuccinate chelated mineral salts.
(§3) A stock solution for foliar application was prepared by blending 6000 ml of water with T-DAT 09, (Harcross Chemical Company, USA) a surfactant, added to spray mix at 2 drops per liter. • 1). 5 ml of 9% zinc was added to 1 liter of stock solution. • 2). 5 ml of 5% copper was added to 1 liter of stock solution. • 3). 5 ml of 5% manganese was added to 1 liter of stock solution. • 4). 5 ml of 5% Iron was added to 1 liter of stock solution. • 5). 4 ml of 9% zinc, 1 ml of 5% copper, 1 ml of 5% manganese, and 1 ml of 5% iron was added to 1 liter of stock solution. • 6). Stock solution without further addition.
(§4) All plants were sprayed until wet. Harvested material was placed in an oven for one day and sent to the lab for tissue analysis. Harvesting occurred thirty days after planting and some plants had not grown enough to get complete lab results reported. The harvested corn plants were cut at the whirl to insure only new leaves would be tested. The soybeans were clipped above the cotyledon. The alfalfa and clover were removed from the soil and the roots were removed. The wheat was cut at the tillering node.

Wheat [7] = experiment: Foliar applied IDS chelated minerals, tissue analysis, wheat; type: in vivo
Description: as §2, §3, §4

Clover [8] = experiment: Foliar applied IDS chelated minerals, tissue analysis, clover; type: in vivo
Description: as §2, §3, §4

Soybean [9] = experiment: Foliar applied IDS chelated minerals, tissue analysis, soybeans; type: in vivo
Description: as §2, §3, §4

Clover [10] = experiment: Soil applied IDS chelated minerals with 10-34-0, tissue analysis, clover; type: in vivo
Description: as §2
(§5) A). The control pots were watered without any further treatments.
(§6) B). An ammonium polyphosphate stock solution was prepared by adding 50 ml of the 10-34-0 to 4000 ml of water. Treated plants received 100 ml of the stock solution.
(§7) (C). The Zinc stock solution was prepared by blending 10 ml of IDS chelated 9% Zinc to a blend of 50 ml of 10-34-0 with 4000 ml of water. Treated plants received 100 ml of the zinc stock solution.
(§8) (D). The mixture of IDS chelated micronutrients was prepared by adding 4 ml of 9% Zinc, 1 ml of 5% Copper, 1 ml of 5% manganese, and 1 ml of 5% Iron. This mixture was then blended with 4000 ml of water and 50 ml of 10-34-0.
as §4

Wheat [11] = experiment: Soil applied IDS chelated minerals with 10-34-0, tissue analysis, wheat; type: in vivo
Description: as §2, §5, §6, §7, §8, §4

Corn [12] = experiment: Soil applied IDS chelated minerals with 10-34-0, tissue analysis, corn; type: in vivo
Description: as §2, §5, §6, §7, §8, §4

Soybean [13] = experiment: Soil applied IDS chelated minerals with 10-34-0, tissue analysis, soybeans; type: in vivo
Description: as §2, §5, §6, §7, §8, §4

For `O=C(CC(C(=O)[O-])N(CCO)C(CC(=O)NCCO)C(=O)[O-])NCCO.[K+].[K+]` (stereo not shown) [Example 17, diethanolsuccinicamide-amino ethanol], the “appearance of blend / precipitates” value ([1]; 1 gram copper sulfate in 250 ml water, 10 ml solution, pH 8.4, 1 gram potassium phosphate) was “clear, dark blue and free of precipitates”, the “appearance of blend / precipitates” value ([2]; 20 ml 1.8M ferric nitrate in 25 ml water, 30 ml solution, pH 9.2, 1 gram potassium phosphate) was “clear, dark ruby red and free of precipitates” and the “appearance of blend / precipitates” value ([3]; 1 gram zinc sulfate in 25 ml water, 30 ml solution, pH 9.5, 1 gram potassium phosphate) was “clear, yellow, and free of precipitates”. The “appearance of blend / precipitates” value ([4]; 10 ml manganese nitrate solution in 25 ml water, 30 ml solution, pH 6, 1 gram potassium phosphate) was “clear, amber in color, and free of precipitates”, the “appearance of solution / precipitates” value ([5]; 2 grams calcium chloride dihydrate in 200 ml water, 20 ml solution, pH 9) was “a clear solution free of precipitates” and the “calcium phosphate precipitate formation” value ([5]; same solution lowered to a pH of 5.5, phosphate salts added) was “without calcium phosphate precipitate formation”.
For `O=C([O-])CC(C(=O)[O-])N(CCO)C(CC(=O)[O-])C(=O)[O-].[K+].[K+].[K+].[K+]` (stereo not shown) [Example 35, N,N-disuccinic-amino-ethanol tetra potassium salt], the “redissolution of precipitated ferric phosphate” value ([2]; 20 grams potassium phosphate and 10 grams 1.8 M ferric solution in one liter water, 2.4 grams of the 0.75 M solution added) was “a clear yellow solution was produced inmediately” and the “appearance of solution / precipitates” value ([3]; 10 ml 17% zinc solution and 20 grams potassium phosphate in a liter of water, phosphorous acid, 30 ml solution, after a day pH 10 with MEA) was “remained clear, free of precipitates, and colorless”.
For “2-ethanolaminesuccinic-N-ethanolsuccinicamide [Example 10]”, the “appearance of finished solution / precipitates” value ([1]; five percent chelated copper solution: 19 grams basic copper sulfate in 100 ml water, HCl, 71 grams compound, pH of 5) was “free of precipitates”, the “appearance of finished solution / precipitates” value ([2]; five percent chelated iron solution: 18 ml water, 100 grams (10% Fe) ferric nitrate solution, 82 grams compound, pH of 5) was “clear and free of precipitates” and the “appearance of finished solution / precipitates” value ([3]; nine percent chelated zinc solution: 22.4 grams zinc oxide in 50 ml water, HCl, 125 grams compound, pH of 5) was “clear and free of precipitates”. For the same compound, the “appearance of finished solution / precipitates” value ([4]; five percent chelated manganese solution: 18 ml water, 58 grams (17% Mn) manganese nitrate solution, 82 grams compound, pH of 5) was “clear and free of precipitates”.
For ZINC, the “zinc in plant tissue, TREATED” value (Corn [6]; harvested 30 days after planting, control 15.6) was 792 parts per million, the “zinc in plant tissue, CHANGE” value (Corn [6]; treated minus control 15.6) was 776.4 parts per million and the “zinc in plant tissue, % change” value (Corn [6]; versus control 15.6) was 4977%. For the same compound, the “zinc in plant tissue, TREATED” value (Wheat [7]; harvested 30 days after planting, control 44.3) was 563 parts per million, the “zinc in plant tissue, CHANGE” value (Wheat [7]; treated minus control 44.3) was 518.7 parts per million and the “zinc in plant tissue, TREATED” value (Clover [8]; harvested 30 days after planting, control 56.7) was 1264 parts per million. For the same compound, the “zinc in plant tissue, CHANGE” value (Clover [8]; treated minus control 56.7) was 1207.3 parts per million, the “zinc in plant tissue, TREATED” value (Soybean [9]; harvested 30 days after planting, control 63.8) was 1000 parts per million and the “zinc in plant tissue, CHANGE” value (Soybean [9]; treated minus control 63.8) was 936.2 parts per million. The “zinc in plant tissue, % change” value (Soybean [9]; versus control 63.8) was 1467%, the “zinc in plant tissue, TREATED” value (Clover [10]; soil applied with 10-34-0, harvested 30 days after planting, control 53.4) was 231 and the “zinc in plant tissue, CHANGE” value (Clover [10]; soil applied, treated minus control 53.4) was 177.6. The “zinc in plant tissue, % change” value (Clover [10]; soil applied, versus control 53.4) was 333%, the “zinc in plant tissue, TREATED” value (Wheat [11]; soil applied with 10-34-0, harvested 30 days after planting, control 39) was 93.1 and the “zinc in plant tissue, CHANGE” value (Wheat [11]; soil applied, treated minus control 39) was 54.1. For the same compound, the “zinc in plant tissue, % change” value (Wheat [11]; soil applied, versus control 39) was 139%, the “zinc in plant tissue, TREATED” value (Corn [12]; soil applied with 10-34-0, harvested 30 days after planting, control 24) was 69.6 and the “zinc in plant tissue, CHANGE” value (Corn [12]; soil applied, treated minus control 24) was 45.6. For the same compound, the “zinc in plant tissue, %” value (Corn [12]; soil applied, versus control 24) was 190%, the “zinc in plant tissue, TREATED” value (Soybean [13]; soil applied with 10-34-0, harvested 30 days after planting, control 19.4) was 136 and the “zinc in plant tissue, CHANGE” value (Soybean [13]; soil applied, treated minus control 19.4) was 116.6. The “zinc in plant tissue, %” value (Soybean [13]; soil applied, versus control 19.4) was 601%.
